According to publication PMC7156458, “Synthetic biology based construction of biological activity-related library of fungal decalin-containing diterpenoid pyrones” (Nature Communications, 2020):
Several values for one entry are separate records, joined by “and”; a condition that tells them apart may be missing. Equal entries are not always repeated. Where two headings read alike, the source gives them in different places.

How the values were obtained:
MCF-7 cells = experiment: cell cytotoxic effects against MCF-7 cells (72 h), A490; format: cell-based, human; settings: for A490 ave: MCF-7, 72 h
Protocol: !" ' ' '! !" ' ' '! !" ' ' '!!" ' ' '!!" ' ' '!!" ' ' '!!" ' ' '!!" ' ' '! !" ' ' '! !" ' ' '! !" ' ' '! !"#$
( % ) * '! '' '# '+ '$ '( '%
! " # $ %& %% %' %( %) %! %"
!" ' ' '! !" ' ' '!!" ' ' '!!" ' ' '!!" ' ' '!!" ' ' '!!" ' ' '! !" ' ' '! !" ' ' '! !" ' ' '! !" ' ' '! […]
Supplementary Fig. 46. a, Cell cytotoxic effects of DDPs against MCF-7 cells (72 h).
dose dependent cytotoxic effects against MCF-7 cells were tested their inhibitory activity against mammosphere
formation. Compound in blue (16) was also performed mammosphere assay as negative control. Data represent
mean±s.d. from three independent replicate experiments. […]
Source data underlying Supplementary Figure 46a are provided in a Source Data file. […]

l(2)mbn cells = experiment: cytotoxicity in Drosophila l(2)mbn cells; format: cell-based; settings: for Luminescence Raw1: replicate 1; for % viability, viability 1: replicate 1, relative to DMSO 1%; for Luminescence Raw2: replicate 2; for % viability, viability 2: replicate 2, relative to DMSO 1%
Protocol: (§1) We screened the DDPs on the Drosophila assay system for cytotoxicity, inhibitory activity of innate immune signalling and insecticidal activity. The cytotoxicity of the DDPs was evaluated using two cell lines, embryonic macrophage-derived DL1 cells[58]–[60] and larval blood cell-derived l(2)mbn cells, and their IC50 values are listed in Supplementary Table 23.

MAGI cells = experiment: cytotoxicity in the anti-HIV assay (CC50); format: cell-based; settings: for Cytotoxicity: single determinations
Text: We examined the inhibitory activities of DDPs against various species of bacteria (both gram-negative and gram-positive bacteria), fungi and viruses. […] In contrast, preliminary screening of the DDPs for anti-viral agents with hepatitis B virus (HBV), measles virus (MV), Epstein-Barr virus (EBV), herpes simplex virus (HSV) and human immunodeficiency virus-1 (HIV-1) indicated their selective inhibition of HIV.
Policy information about cell lines […]
HeLa-CD4-LTR/ !-galactosidase (MAGI) cells provided by Dr. J. Overbaugh through the NIH AIDS Research and Reference […]
MAGI cells were authenticated by the NIH.
Mycoplasma contamination All the cell lines tested negative for mycoplasma contamination.
Commonly misidentified lines No commonly mis-identified cell lines. […]

[1] = cytotoxicity in Drosophila l(2)mbn cells; format: cell-based; settings: Drosophila, l(2)mbn cells (larval blood cell-derived)
Protocol: as §1

[2] = Homo sapiens, MCF7, 72 h, read-out: A490 (control =1) ave
[3] = replicate 1, relative to DMSO 1%, read-out: % viability, viability 1
[4] = replicate 2, relative to DMSO 1%, read-out: % viability, viability 2

Which viability at 0.1 µM (MCF-7 cells; [2]) does the source give for `C=C1CCC2C(C)(CCC=C(C)C)C(O)CCC2(C)C1Cc1c(OC)oc(C)c(C)c1=O` (stereo not drawn) [Compound 15, viridoxin A hydrolysate] here?
The viability at 0.1 µM was 82%.

What about the viability at 1 µM (MCF-7 cells; [2]) of the same compound?
Its viability at 1 µM is 121%.

And the viability at 10 µM (MCF-7 cells; [2])?
Its viability at 10 µM is 61.8%.

And the A490 ave (MCF-7 cells; 0.1 µM (DMSO 0.002%), control 1.064)?
Its A490 ave is 0.873.

And the A490 ave (MCF-7 cells; 1 µM (DMSO 0.02%), control 1.104)?
Its A490 ave is 1.333.

And the A490 ave (MCF-7 cells; 10 µM (DMSO 0.2%), control 1.049)?
Its A490 ave is 0.649.

And the “Luminescence Raw1” value (l(2)mbn cells; 0.04 µM)?
The value was 5571583.

And the “% viability, viability 1” value (l(2)mbn cells; 0.04 µM)?
The value was 88.7303%.

What about the “Luminescence Raw2” value (l(2)mbn cells; 0.04 µM) of the same compound?
Its value is 5591430.

What about the “% viability, viability 2” value (l(2)mbn cells; 0.04 µM) of the same compound?
Its value is 89.0464%.

And the “Luminescence Raw1” value (l(2)mbn cells; 0.2 µM)?
Its value is 6221854.

And the “% viability, viability 1” value (l(2)mbn cells; 0.2 µM)?
The value was 99.0862%.

What about the “Luminescence Raw2” value (l(2)mbn cells; 0.2 µM) of the same compound?
The value was 5568336.

What about the “% viability, viability 2” value (l(2)mbn cells; 0.2 µM) of the same compound?
Its value is 88.6786%.

And the “Luminescence Raw1” value (l(2)mbn cells; 1 µM)?
The value was 6094827.

And the “% viability, viability 1” value (l(2)mbn cells; 1 µM)?
The value was 97.0632%.

And the “Luminescence Raw2” value (l(2)mbn cells; 1 µM)?
The value was 5439516.

And the “% viability, viability 2” value (l(2)mbn cells; 1 µM)?
The value was 86.6271%.

And the “Luminescence Raw1” value (l(2)mbn cells; 4 µM)?
The value was 5005443.

What about the “% viability, viability 1” value (l(2)mbn cells; 4 µM) of the same compound?
The value was 79.7142%.

What about the “Luminescence Raw2” value (l(2)mbn cells; 4 µM) of the same compound?
Its value is 4514031.

And the “% viability, viability 2” value (l(2)mbn cells; 4 µM)?
The value was 71.8882%.

And the “Luminescence Raw1” value (l(2)mbn cells; 10 µM)?
The value was 362955.

What about the “% viability, viability 1” value (l(2)mbn cells; 10 µM) of the same compound?
The value was 5.78%.

And the “Luminescence Raw2” value (l(2)mbn cells; 10 µM)?
Its value is 319326.

What about the “% viability, viability 2” value (l(2)mbn cells; 10 µM) of the same compound?
Its value is 5.085%.

And the “Luminescence Raw1” value (l(2)mbn cells; 20 µM)?
Its value is 109116.

And the “% viability, viability 1” value (l(2)mbn cells; 20 µM)?
The value was 1.738%.

And the “Luminescence Raw2” value (l(2)mbn cells; 20 µM)?
Its value is 229184.

And the “% viability, viability 2” value (l(2)mbn cells; 20 µM)?
The value was 3.65%.

What about the IC50 (l(2)mbn cells; cytotoxicity, average±SEM) of the same compound?
The IC50 was 5.23 ± 0.19 µM.

And the IC50 (l(2)mbn cells; read-out: IC50 (1), cytotoxicity, replicate 1)?
Its IC50 is 5.42 µM.

And the IC50 (l(2)mbn cells; read-out: IC50 (2), cytotoxicity, replicate 2)?
Its IC50 is 5.04 µM.

What about the IC50 (l(2)mbn cells; read-out: IC50 Average, cytotoxicity, average of two replicates) of the same compound?
Its IC50 is 5.23 µM.

What about the Cytotoxicity (MAGI cells) of the same compound?
The Cytotoxicity was >10 µM.

Which Cytotoxicity (MAGI cells) does the source give for `CC(C)=CCC/C(C)=C/CC/C(C)=C/CC/C(C)=C/Cc1c(O)c(C)c(C)oc1=O` [Compound 2] here?
The Cytotoxicity was >10 µM.

For `C=C1CCC2C(C)(CCC=C(C)C)C(=O)CCC2(C)C1Cc1c(O)c(C)c(C)oc1=O` (stereo not drawn) [Compound 8], which viability at 0.04 µM [1, 3] is on record?
Its viability at 0.04 µM is 86%.

What about the viability at 0.04 µM [1, 4] of the same compound?
The viability at 0.04 µM was 82.2%.

And the viability at 0.2 µM [1, 3]?
Its viability at 0.2 µM is 87.7%.

What about the viability at 0.2 µM [1, 4] of the same compound?
Its viability at 0.2 µM is 91.3%.

What about the viability at 1 µM [1, 3] of the same compound?
The viability at 1 µM was 86.7%.

And the viability at 1 µM [1, 4]?
Its viability at 1 µM is 91.8%.

And the viability at 4 µM [1, 3]?
Its viability at 4 µM is 70.7%.

What about the viability at 4 µM [1, 4] of the same compound?
Its viability at 4 µM is 85.1%.

What about the viability at 10 µM [1, 3] of the same compound?
Its viability at 10 µM is 2.83%.

And the viability at 10 µM [1, 4]?
The viability at 10 µM was 2.94%.

And the viability at 20 µM [1, 3]?
The viability at 20 µM was 1.82%.

And the viability at 20 µM [1, 4]?
Its viability at 20 µM is 2.53%.

And the “Luminescence Raw1” value (l(2)mbn cells; 0.04 µM)?
Its value is 5399824.

And the “Luminescence Raw2” value (l(2)mbn cells; 0.04 µM)?
The value was 5163481.

What about the “Luminescence Raw1” value (l(2)mbn cells; 0.2 µM) of the same compound?
Its value is 5509158.

And the “Luminescence Raw2” value (l(2)mbn cells; 0.2 µM)?
The value was 5734687.

What about the “Luminescence Raw1” value (l(2)mbn cells; 1 µM) of the same compound?
The value was 5444928.

And the “Luminescence Raw2” value (l(2)mbn cells; 1 µM)?
The value was 5762112.

What about the “Luminescence Raw1” value (l(2)mbn cells; 4 µM) of the same compound?
The value was 4437905.

What about the “Luminescence Raw2” value (l(2)mbn cells; 4 µM) of the same compound?
The value was 5343895.

What about the “Luminescence Raw1” value (l(2)mbn cells; 10 µM) of the same compound?
Its value is 177623.

And the “Luminescence Raw2” value (l(2)mbn cells; 10 µM)?
Its value is 184474.

And the “Luminescence Raw1” value (l(2)mbn cells; 20 µM)?
Its value is 114164.

What about the “Luminescence Raw2” value (l(2)mbn cells; 20 µM) of the same compound?
Its value is 158874.

What about the IC50 (l(2)mbn cells; Drosophila melanogaster, cytotoxicity, average of two replicates, read-out: IC50 Average) of the same compound?
The IC50 was 5.14 µM.

And the IC50 (l(2)mbn cells; Drosophila melanogaster, cytotoxicity, average±SEM, read-out: IC50)?
The IC50 was 5.14 ± 0.3 µM.

And the IC50 (l(2)mbn cells; Drosophila melanogaster, cytotoxicity, replicate 1, read-out: IC50 (1))?
Its IC50 is 4.83 µM.

And the IC50 (l(2)mbn cells; Drosophila melanogaster, cytotoxicity, replicate 2, read-out: IC50 (2))?
Its IC50 is 5.44 µM.

And the “Cytotoxicity Avg.” value (MAGI cells; average of numeric determinations)?
The value was 8.816 µM.

And the Cytotoxicity (MAGI cells)?
The Cytotoxicity was 9.604 µM and 7.239 µM.
